According to patent US20050208511A1, “DMBT1 as a clinical marker and uses thereof” (priority 2003, published 2005):

Tests used:
DMBT1 [1] = assay: Northern analysis of DMBT1 expression in rat uterus; assay type: in vivo, Sprague Dawley rats; conditions: for DMBT1 expression on coadministration with estrone: 70 μg/kg/day estrone + 1 mg/kg/day compound, relative to estrone alone (FIG. 3A); for DMBT1 expression increase in uterine tissue: compound alone, oral, three days, estrone 70 μg/kg/day, others 1 mg/kg/day (FIG. 2)
Experimental: (§1) Ten groups of 22-day-old female Sprague Dawley rats (three animals per group) were used to evaluate the effects of estrone, tamoxifen, raloxifene, and ICI 182780 on DMBT1 expression in the uterus. The following groups of rats were treated for three days as follows:
(§2) All treatments were delivered orally in 0.5% Methocel. After treatment the animals were euthanized and the uteri were collected, weighed, frozen in liquid nitrogen, and stored at −20° C. RNA was purified from the frozen uteri using 1.0 mL of TRIzol Reagent (Invitrogen) and a PowerGen 25 tissue homogenizer (Fisher Scientific), according to the manufacturer's instructions.
Northern analysis was performed to determine gene expression, including DMBT1 expression, in the uterus of control and treated rats. For gel electrophoresis, samples containing 2 μg of total RNA in a volume of 2 μL of water were added to 6 microliters of formaldehyde loading dye (Ambion) and incubated at 65° C. for 20 minutes. One microliter of a 0.1 mg/ml ethidium bromide solution was then added to each sample. […] The RNA was transferred to a Hybond-N membrane (Amersham) for […] by capillary transfer blotting, using 10×SSC (0.15 M Sodium citrate, pH 7.0, 1.5 M NaCl), after which the membranes were stained with ethidium bromide, destained with water, and photographed for lane loading comparison. The membranes were then air-dried and kept at room temperature until hybridization.
A glycerol stock of a bacterial clone carrying a plasmid (pINCY) containing the rat ebnerin (DMBT1) gene was obtained from Incyte Genomics (ID#: 0000101155000011). […] One colony was selected and used to inoculate 200 mL of Lennox L Broth (Sigma)+50 μg/mL ampicillin (Sigma). The liquid culture was grown overnight at 37° C. and the bacteria were collected by centrifugation. Purification of plasmid DNA was carried out using a QIAfilter plasmid maxi kit (QIAgen) according to the manufacturer's instructions.
Purified pINCY/DMBT1 was treated with the restriction enzymes EcoRI and NotI (Promega) for the preparation and isolation of a 1,174 bp DNA fragment containing the ebnerin probe (DMBT1). The products of the restriction enzyme reaction were separated by electrophoresis on a 1× TAE, 1% SeaKem Gold Agarose Reliant gel, and the band corresponding to the 1.174 kb DNA ebnerin clone was excised. The ebnerin DNA probe was purified from the gel slice using a QIAquick Gel Extraction Kit (QIAgen) according to the manufacturer's instructions. Bound DNA was eluted from the QIAgen column with 50 μL of elution buffer. The ebnerin DNA probe in the eluate was quantified by comparison to a DNA standard by gel electrophoresis. The ebnerin DNA probe was then diluted to a final concentration of 25 ng/μL.
Random-primed probe was made from 25 ng of the purified ebnerin DNA using a DECAprime II kit (Ambion) and Redivue α-^32P dATP (10 mCi/mL) (Amersham) according to the manufacturer's instructions, with the exception that the reaction was incubated for 30 minutes at 37° C. After adding EDTA to stop the reaction, the labeled probe was purified using a QIAquick Nucleotide Removal Kit (QIAgen) according to the manufacturer's instructions, with the final volume of eluted probe being 50 μL. Two microliters were counted in a scintillation counter to ensure optimal radionuclide incorporation (>2×10^6 cpm/μL).
The blot membrane as described in section A was wet in 2×SSC buffer (Sigma) for 15 minutes, then pre-hybridized in 10 mL RapidHyb (Amersham) at 65° C. for 20 minutes. The probe was boiled for 10 minutes, and 25 μL was added to 10 mL of RapidHyb, pre-warmed to 65° C. The blot membrane was added to the diluted probe solution and incubated, with rotation, in a hybridization oven for approximately 10 hours.
The membrane was removed from the probe-containing solution and rinsed twice with 2×SSPE +0.5% SDS+0.5% pyrophosphate at room temperature, and then washed once, with gentle agitation, for 30 minutes at room temperature in the same solution.

uterus = assay: uterine weight in 22-day-old female rats; assay type: in vivo, Sprague Dawley rats; conditions: oral
Experimental: as §1, §2
In rats, uteri increase in size under the proliferative influence of estrogen, and this increase in size can be measured by weighing the tissues.
Administration of the treatments and collection of tissue samples were carried out according to the procedure described in Example 2. RNA was purified, blotted and hybridized to radioactively labeled rat ebnerin cDNA as in described in Example 2.

DMBT1 [2] = assay: quantitative RT-PCR of DMBT1 in uterus of ovariectomized rats; assay type: in vivo, Wistar rats; conditions: OVX rats, co-treatment with ethinyl estradiol (FIG. 3B)
Experimental: Six weeks old ovariectomized Wistar rats (Charles River, Wilmington, Mass.) were dosed for either one day or six weeks with vehicle or test compounds. All treatments were delivered orally, once daily, in 0.5% methylcellulose or sesame oil. After treatment, the uteri were removed, total RNA was purified from the tissues using TRIzol reagent (Invitrogen, Carlsbad, Calif.) as directed by the manufacturer.
Quantitative reverse transcription-polymerase chain reactions (RT-PCR) of DMBT1 from rat RNA samples were carried out using a One-Step RT-PCR Master Mix Kit (Applied Biosystems, Foster City, Calif.) and an ABI Prism 7000 Sequence Detection System (Applied Biosystems), as described by the manufacturer. Commercially available primers and FAM-labeled MGB probes for human and rat DMBT1 (catalog numbers Hs00244827_ml and Rn00575705_ml, respectively) were obtained from Applied Biosystems (Foster City, Calif.). Messenger RNA levels were normalized against 18S ribosomal RNA levels determined using primers and a VIC- and TAMRA-labeled probe from the same vendor.

endometrium = assay: average endometrial thickness in treated monkeys; assay type: in vivo, cynomolgus monkeys (Macaca fascicularis); conditions: 19 days
Description: (§3) Adult female cynomolgus monkeys (Macaca fascicularis) were obtained from Covance Research Products. Following one complete menstrual cycle and in the follicular phase of the subsequent menstrual cycle, the animals were ovariectomized by a mid-ventral laparotomy. Ovariectomized (OVX) animals were subject to estrogen treatment after the fourth week following ovariectomy.
Animals and treatment were the same as Example 1 with the following exceptions. To study the effect of PRMs on the endometrium and gene expression, groups of three ovariectomized (OVX) monkeys were given an estrogen implant (E2), plus daily oral doses of the following PRMs for 19 days: mifepristone at 10 mg/kg/d; 17N11-DE (17β-N-substituted-11β-dimethylaminophenyl-estra-4,9-dien-3-one) 1.0, 3.0, or 10 mg/kg/d; 17N11-PE (17β-N-substituted-11β-piperidinylphenyl-estra-4,9-dien-3-one) at 1.0, 3.0, or 10 mg/kg/d. A placebo (0.5% methylcellulose) was administered as a control. 17N11-DE and 17N11-PE are two PRMs that have been described in PCT Publication No. WO 99/62928. Tissue samples were taken from endometria and myometria for histological analysis.

monkey endometrium = assay: DNA microarray gene expression profile (regulated gene identifiers) in endometrium of ovariectomized monkeys; assay type: in vivo, cynomolgus monkeys (Macaca fascicularis); conditions: Ovx/E2 vs Ovx/Placebo
Description: as §3
(§4) Following this period, the OVX monkeys were euthanized and tissue biopsies were taken from endometria of the monkeys treated with estrogen and the placebo. (Details of the endometrial features in OVX monkeys and OVX+estrogen-treated monkeys is described in Example 4.) The biopsies were placed in sterile containers, snap frozen immediately in liquid nitrogen, and stored at −80° C. until processed. Total RNA was prepared from each endometrial tissue biopsy, as described below.
Total RNA was prepared from endometrial tissue biopsies (approximately 50 mg each) using RNAzol™ (Tel-Test, Friendswood, Tex.), as follows. Two milliliters of RNAzol™ were used per 100 mg of tissue. Tissues were homogenized for 2 to 3 minutes using a Tissue Tearor homogenizer (Model No. 985-370; BioSpec Products, Bartlesville, Okla.), then transferred to a glass mortar bowl. The tissues were ground with at least 10 strokes of the pestle until a clear suspension was obtained. […]

luminal epithelium = luminal epithelium thickening in rat uterus sections; assay type: in vivo, Wistar rats; conditions: OVX rats dosed six weeks, compared to sham and ovariectomized control; estrogen = ethinyl estradiol
Experimental: Mature, six week-old ovariectomized or sham-operated Wistar rats (Charles River) were dosed with ethinyl estradiol, tamoxifen or raloxifene for six weeks. Uteri were removed, sectioned for immunohistochemical analysis for DMBT1 expression using a polyclonal goat antibody against the human protein.
Tissues were trimmed and processed for paraffin embedding according to conventional methods. Five-micron sections were cut, mounted onto SuperFrost Plus+(Fisher Scientific, Pittsburgh, Pa.) microscopic slides and dried overnight. The protocols for routine single immunohistochemistry (IHC) have been described previously (D'Andrea et al., 2001, Biotechnic Histochem. 76:97-106). Briefly, tissue sections on microscopic slides were dewaxed and re-hydrated. Slides were microwaved for 5 min in Target buffer (Dako, Carpenturia, Calif.), cooled, placed in phosphate-buffered saline (PBS, pH 7.4) and treated with 3% (v/v) H2O2 for 10 min at room temperature. All incubations (30 min each) and washes were performed at room temperature. Normal rabbit blocking serum (Vector Labs, Burlingame, Calif.) was placed on all slides for 10 min. After a brief rinse in PBS, sections were treated with goat polyclonal DMBT1 primary antibody (1:25, Hypromatrix, Worcester, Mass.). Slides were then washed in PBS and treated with rabbit anti-goat biotinylated secondary antibodies (Vector Labs). After washing in PBS, the avidin-biotin-horseradish peroxidase complex reagent (HRP, Vector Labs) was added. All slides were washed and treated with 3,3′-diaminobenzidine (DAB, Biomeda, Foster City, Calif.) two times for 5 min each, rinsed in distilled water, and counterstained with hematoxylin.

DMBT1 [3] = assay: DNA microarray analysis of DMBT1 expression in endometrium of ovariectomized monkeys; assay type: in vivo, cynomolgus monkeys (Macaca fascicularis); conditions: OVX monkeys, estrogen implant 19 days vs Ovx/Placebo, endometrium, microarray
Description: as §3, §4
Total RNA was prepared from endometrial tissue biopsies (approximately 50 mg each) using RNAzol™ (Tel-Test, Friendswood, Tex.), as follows. Two milliliters of RNAzol™ were used per 100 mg of tissue. Tissues were homogenized for 2 to 3 minutes using a Tissue Tearor homogenizer (Model No. 985-370; BioSpec Products, Bartlesville, Okla.), then transferred to a glass mortar bowl. The tissues were ground with at least 10 strokes of the pestle until a clear suspension was obtained. The homogenates were transferred to a polypropylene conical flask, to which 0.1 mL of chloroform per 1 mL of homogenate was added. The mixtures were then shaken vigorously for 1 minute. The suspensions were then transferred to a 2 mL microcentrifuge tube and centrifuged for 15. minutes at 12000 g and at 4° C. in a fixed angle rotor using a Biofuge 17R centrifuge (Baxter, Deerfield, Ill.). The aqueous phase was carefully transferred to a new microcentrifuge tube. An equal volume of isopropanol was added to the aqueous phase, mixed gently, and incubated at 4° C. for 15 minutes. RNA was pelleted by centrifuging the mixture for 15 minutes at 12000 g and at 4° C. as described above. The supernatant was removed and the pellet washed with 75% (v/v) ethanol (Pharmco Products, Brookfield, Conn.), followed by centrifugation at 7500 g for 8 minutes at 4° C. The supernatant was removed, and then the RNA pellet was air-dried briefly and resuspended in RNase-free water (Promega, Madison, Wis.). The samples were then treated with Amplification Grade RNase-free DNase I to remove any residual DNA (Invitrogen, Carlsbad, Calif.). Specifically, twenty micrograms of RNA were treated in a reaction volume of 0.1 mL, containing 1× DNase I reaction buffer and 10 units of DNase I. The reaction continued at room temperature for 15 minutes. […]

[4] = estrogen-stimulated endometrium (C)

For `C[C@]12CC[C@@H]3c4ccc(O)cc4C[C@@H](CCCCCCCCC[S+]([O-])CCCC(F)(F)C(F)(F)F)[C@H]3[C@@H]1CC[C@@H]2O` (some centres unmarked) [ICI 182780], the “DMBT1 expression on coadministration with estrone” value (DMBT1 [1]; 1 mg/kg/day) was “moderately lowered”, the “DMBT1 expression on coadministration with estrone” value (DMBT1 [1]; listed as ICI 182,780, 1 mg/kg/day) was “inhibited” and the “DMBT1 expression increase in uterine tissue” value (DMBT1 [1]) was “undetectable levels”. For the same compound, the “uterine weight on co-treatment with estrone” value (uterus; 70 μg/kg/day estrone + 1 mg/kg/day compound, three days (FIG. 1)) was “approximately between that of estrone (E) and ICI 182780 (1) treatments alone” and the uterine weight (uterus; compound alone, three days, estrone 70 μg/kg/day, others 1 mg/kg/day, vs control (FIG. 1)) was “significant decrease in uterine weight”.
For `C[C@]12CC[C@@H]3c4ccc(O)cc4CC[C@H]3[C@@H]1CCC2=O` [estrone], the “DMBT1 expression increase in uterine tissue” value (DMBT1 [1]) was roughly 5 fold.
For `CC(=O)O[C@]1(C(C)=O)CC[C@H]2[C@@H]3C[C@H](C)C4=CC(=O)CC[C@]4(C)[C@H]3CC[C@@]21C` [medroxyprogesterone acetate], the “effect on ethinyl estradiol-induced increase in DMBT1 mRNA levels” value (DMBT1 [2]) was “blocked the increase in mRNA levels in a dose-dependent manner”.
With estrogen the “Endometrial Thickness (mm)” value (endometrium; Ovx/E2/Vehicle) was 3.03 mm, the “endometrial thickness relative to chemically castrated endometrium (B)” value (endometrium; [4]) was 2.5 times and the “endometrial thickness relative to ovariectomized control (A)” value (endometrium; [4]) was “seven to eight times thicker”. The “PR gene regulation by estrogen” value (monkey endometrium) was “threefold up-regulation”, the “insulin-like growth factor binding protein 3 gene regulation by estrogen” value (monkey endometrium) was “tenfold down-regulation” and the “thickening of the luminal epithelium” value (luminal epithelium) was “expected thickening of the luminal epithelium”. For the same compound, the “expression of DMBT1 up-regulated” value (DMBT1 [3]) was 37 fold.
